Data from the NIST ThermoML archive (doi:10.1016/j.tca.2012.02.002).
± gives the expanded uncertainty stated by the source.

Assay: molar heat capacity at constant pressure
Settings: 101.33 kPa, Crystal

O=P([O-])([O-])[O-].[Er+3] [erbium phosphate]
Settings	molar heat capacity at constant pressure [J/K/mol]
48.02 K, Vacuum adiabatic calorimetry	18.68 ± 0.08
49.64 K, Vacuum adiabatic calorimetry	19.56 ± 0.08
50 K, Drop calorimetry	19.7 ± 0.59
51.27 K, Vacuum adiabatic calorimetry	20.45 ± 0.08
52.9 K, Vacuum adiabatic calorimetry	21.35 ± 0.08
54.54 K, Vacuum adiabatic calorimetry	22.23 ± 0.09
55 K, Drop calorimetry	22.45 ± 0.67
56.17 K, Vacuum adiabatic calorimetry	23.13 ± 0.09
57.81 K, Vacuum adiabatic calorimetry	24.03 ± 0.09
59.46 K, Vacuum adiabatic calorimetry	24.96 ± 0.09
60 K, Drop calorimetry	25.28 ± 0.76
61.11 K, Vacuum adiabatic calorimetry	25.9 ± 0.09
62.76 K, Vacuum adiabatic calorimetry	26.86 ± 0.09
64.41 K, Vacuum adiabatic calorimetry	27.81 ± 0.1
65 K, Drop calorimetry	28.13 ± 0.84
66.06 K, Vacuum adiabatic calorimetry	28.75 ± 0.1
67.72 K, Vacuum adiabatic calorimetry	29.67 ± 0.1
69.38 K, Vacuum adiabatic calorimetry	30.58 ± 0.1
70 K, Drop calorimetry	30.96 ± 0.93
71.24 K, Vacuum adiabatic calorimetry	31.56 ± 0.1
73.31 K, Vacuum adiabatic calorimetry	32.73 ± 0.11
75 K, Drop calorimetry	33.73 ± 1
75.38 K, Vacuum adiabatic calorimetry	33.9 ± 0.11
77.44 K, Vacuum adiabatic calorimetry	35.09 ± 0.11
78.64 K, Vacuum adiabatic calorimetry	35.5 ± 0.11
79.51 K, Vacuum adiabatic calorimetry	36.27 ± 0.11
80 K, Drop calorimetry	36.43 ± 1.1
81 K, Vacuum adiabatic calorimetry	37.03 ± 0.11
81.57 K, Vacuum adiabatic calorimetry	37.33 ± 0.12
83.05 K, Vacuum adiabatic calorimetry	38 ± 0.12
83.64 K, Vacuum adiabatic calorimetry	38.24 ± 0.12
85 K, Drop calorimetry	39.03 ± 1.2
85.11 K, Vacuum adiabatic calorimetry	38.94 ± 0.12
85.72 K, Vacuum adiabatic calorimetry	39.22 ± 0.12
87.17 K, Vacuum adiabatic calorimetry	40.21 ± 0.12
87.79 K, Vacuum adiabatic calorimetry	40.58 ± 0.12
89.22 K, Vacuum adiabatic calorimetry	41.36 ± 0.12
89.86 K, Vacuum adiabatic calorimetry	41.58 ± 0.12
90 K, Drop calorimetry	41.53 ± 1.2
91.28 K, Vacuum adiabatic calorimetry	42.3 ± 0.24
91.94 K, Vacuum adiabatic calorimetry	42.51 ± 0.24
93.33 K, Vacuum adiabatic calorimetry	43.21 ± 0.24
94.02 K, Vacuum adiabatic calorimetry	43.42 ± 0.24
95 K, Drop calorimetry	43.93 ± 1.3
95.39 K, Vacuum adiabatic calorimetry	44.16 ± 0.24
96.11 K, Vacuum adiabatic calorimetry	44.4 ± 0.24
97.45 K, Vacuum adiabatic calorimetry	45.11 ± 0.25
99.5 K, Vacuum adiabatic calorimetry	46.06 ± 0.25
100 K, Drop calorimetry	46.24 ± 1.4
102.17 K, Vacuum adiabatic calorimetry	47.11 ± 0.25
105.46 K, Vacuum adiabatic calorimetry	48.46 ± 0.25
108.74 K, Vacuum adiabatic calorimetry	50.01 ± 0.25
110 K, Drop calorimetry	50.59 ± 1.5
112.02 K, Vacuum adiabatic calorimetry	51.4 ± 0.25
115.31 K, Vacuum adiabatic calorimetry	52.75 ± 0.25
118.6 K, Vacuum adiabatic calorimetry	54.1 ± 0.25
120 K, Drop calorimetry	54.66 ± 1.6
121.89 K, Vacuum adiabatic calorimetry	55.38 ± 0.26
125.18 K, Vacuum adiabatic calorimetry	56.65 ± 0.26
128.48 K, Vacuum adiabatic calorimetry	57.9 ± 0.26
130 K, Drop calorimetry	58.5 ± 1.8
131.77 K, Vacuum adiabatic calorimetry	59.15 ± 0.26
135.06 K, Vacuum adiabatic calorimetry	60.36 ± 0.26
138.35 K, Vacuum adiabatic calorimetry	61.56 ± 0.26
140 K, Drop calorimetry	62.15 ± 1.9
141.64 K, Vacuum adiabatic calorimetry	62.75 ± 0.26
144.92 K, Vacuum adiabatic calorimetry	63.93 ± 0.26
148.21 K, Vacuum adiabatic calorimetry	65.06 ± 0.27
150 K, Drop calorimetry	65.63 ± 2
151.5 K, Vacuum adiabatic calorimetry	66.19 ± 0.27
154.79 K, Vacuum adiabatic calorimetry	67.31 ± 0.27
158.07 K, Vacuum adiabatic calorimetry	68.34 ± 0.27
160 K, Drop calorimetry	68.95 ± 2.1
161.36 K, Vacuum adiabatic calorimetry	69.45 ± 0.27
164.64 K, Vacuum adiabatic calorimetry	70.45 ± 0.27
167.92 K, Vacuum adiabatic calorimetry	71.48 ± 0.27
170 K, Drop calorimetry	72.09 ± 2.2
171.18 K, Vacuum adiabatic calorimetry	72.5 ± 0.27
174.46 K, Vacuum adiabatic calorimetry	73.47 ± 0.27
177.73 K, Vacuum adiabatic calorimetry	74.42 ± 0.27
180 K, Drop calorimetry	75.06 ± 2.2
181 K, Vacuum adiabatic calorimetry	75.35 ± 0.28
184.26 K, Vacuum adiabatic calorimetry	76.23 ± 0.28
187.53 K, Vacuum adiabatic calorimetry	77.14 ± 0.28
190 K, Drop calorimetry	77.87 ± 2.3
190.79 K, Vacuum adiabatic calorimetry	77.99 ± 0.28
194.05 K, Vacuum adiabatic calorimetry	78.87 ± 0.28
197.31 K, Vacuum adiabatic calorimetry	79.82 ± 0.28
200 K, Drop calorimetry	80.51 ± 2.4
200.56 K, Vacuum adiabatic calorimetry	80.61 ± 0.28
204.21 K, Vacuum adiabatic calorimetry	81.51 ± 0.28
208.26 K, Vacuum adiabatic calorimetry	82.53 ± 0.28
210 K, Drop calorimetry	83.03 ± 2.5
212.31 K, Vacuum adiabatic calorimetry	83.53 ± 0.28
216.35 K, Vacuum adiabatic calorimetry	84.52 ± 0.28
220 K, Drop calorimetry	85.43 ± 2.6
220.38 K, Vacuum adiabatic calorimetry	85.53 ± 0.29
228.3 K, Vacuum adiabatic calorimetry	87.52 ± 0.29
230 K, Drop calorimetry	87.73 ± 2.6
232.31 K, Vacuum adiabatic calorimetry	88.39 ± 0.29
236.31 K, Vacuum adiabatic calorimetry	89.17 ± 0.29
240 K, Drop calorimetry	89.95 ± 2.7
240.3 K, Vacuum adiabatic calorimetry	90.08 ± 0.29
244.27 K, Vacuum adiabatic calorimetry	90.89 ± 0.29
248.24 K, Vacuum adiabatic calorimetry	91.71 ± 0.29
250 K, Drop calorimetry	92.08 ± 2.8
252.19 K, Vacuum adiabatic calorimetry	92.54 ± 0.29
256.13 K, Vacuum adiabatic calorimetry	93.34 ± 0.29
260 K, Drop calorimetry	94.13 ± 2.8
260.05 K, Vacuum adiabatic calorimetry	94.13 ± 0.29
263.96 K, Vacuum adiabatic calorimetry	94.97 ± 0.3
267.82 K, Vacuum adiabatic calorimetry	95.68 ± 0.3
270 K, Drop calorimetry	96.08 ± 2.9
271.7 K, Vacuum adiabatic calorimetry	96.34 ± 0.3
275.56 K, Vacuum adiabatic calorimetry	97.1 ± 0.3
279.36 K, Vacuum adiabatic calorimetry	97.78 ± 0.3
280 K, Drop calorimetry	97.93 ± 2.9
283.13 K, Vacuum adiabatic calorimetry	98.4 ± 0.3
286.87 K, Vacuum adiabatic calorimetry	99.05 ± 0.3
290 K, Drop calorimetry	99.69 ± 3
290.33 K, Vacuum adiabatic calorimetry	99.68 ± 0.3
294.03 K, Vacuum adiabatic calorimetry	100.3 ± 0.3
297.69 K, Vacuum adiabatic calorimetry	101 ± 0.3
300 K, Drop calorimetry	101.4 ± 3
301.33 K, Vacuum adiabatic calorimetry	101.7 ± 0.3
305.3 K, Vacuum adiabatic calorimetry	102.4 ± 0.3
310 K, Drop calorimetry	103 ± 3.1
311.36 K, Vacuum adiabatic calorimetry	103.5 ± 0.3
318.34 K, Vacuum adiabatic calorimetry	104.6 ± 0.3
320 K, Drop calorimetry	104.8 ± 3.1
325.26 K, Vacuum adiabatic calorimetry	105.6 ± 0.3
330 K, Drop calorimetry	106.5 ± 3.2
332.11 K, Vacuum adiabatic calorimetry	106.5 ± 0.3
338.88 K, Vacuum adiabatic calorimetry	107.5 ± 0.3
340 K, Drop calorimetry	108.2 ± 3.2
345.58 K, Vacuum adiabatic calorimetry	108.5 ± 0.3
350 K, Drop calorimetry	109.8 ± 3.3
400 K, Drop calorimetry	116.9 ± 3.5
450 K, Drop calorimetry	122.8 ± 3.7
500 K, Drop calorimetry	127.7 ± 3.8
550 K, Drop calorimetry	131.8 ± 4
600 K, Drop calorimetry	135.4 ± 4.1
650 K, Drop calorimetry	138.4 ± 4.2
700 K, Drop calorimetry	141 ± 4.2
750 K, Drop calorimetry	143.3 ± 4.3
800 K, Drop calorimetry	145.3 ± 4.4
850 K, Drop calorimetry	147.1 ± 4.4
900 K, Drop calorimetry	148.8 ± 4.5
950 K, Drop calorimetry	150.2 ± 4.5
1000 K, Drop calorimetry	151.6 ± 4.5
1050 K, Drop calorimetry	152.8 ± 4.6
1100 K, Drop calorimetry	154 ± 4.6
1150 K, Drop calorimetry	155.1 ± 4.7
1200 K, Drop calorimetry	156.1 ± 4.7
1250 K, Drop calorimetry	157.1 ± 4.7
1300 K, Drop calorimetry	158.1 ± 4.7
1350 K, Drop calorimetry	158.9 ± 4.8
1400 K, Drop calorimetry	159.8 ± 4.8
1450 K, Drop calorimetry	160.6 ± 4.8
1500 K, Drop calorimetry	161.4 ± 4.8
1550 K, Drop calorimetry	162.2 ± 4.9
1600 K, Drop calorimetry	162.9 ± 4.9
